“Also recorded” adds a separate entry of the source.
Test system: brain hippocampal slices
Assay: Measurement of neural activity of cultured hippocampal slices on microelectrode array (MEA), caffeine-induced
Format: cell-based, Sprague Dawley white young rat
Settings: for neural activity after washing: 1 mM caffeine plus sample (extract 400 μg/ml, hesperidin 40 μg/ml, narirutin 136 μg/ml), then washed 20 min with artificial cerebrospinal fluid only; for degree of neural activity compared to treatment of caffeine alone: perfused 20 min with 1 mM caffeine plus sample (citrus unshiu peel extract 400 μg/ml, hesperidin 40 μg/ml, narirutin 136 μg/ml), before washing
Text: A method of organotypic culturing of slices of the brain hippocampus using a thin film used an already commonly used method. Specifically, the brain hippocampus was extracted from a Sprague Dawley white young rat (Orientbio Co., Seungnam, Korea) of 5- to 7-day old, and sliced to a thickness of 350 μm using a tissue slicer (Mickle Laboratory Engineering Co., UK). After 5 to 6 slices were disposed into a thin film insert (Millicell-CM; Millipore, MA) with 0.4-μm holes, put in a 6-well plate (SPL Life Sciences Co., Korea), and then cultured in an incubator kept with 5% CO2 at 36° C. (Dong-A Co., Seoul, Korea). A culture solution (MEM; Welgene, Gyeongsan, South Korea), 20 mM HEPES (Sigma, St. Louis, Mo., USA), a 25% Hank's balanced salt solution (HBSS; Welgene, Gyeongsan, South Korea), 6 g/L D-glucose (Sigma, St. Louis, Mo., USA), 1 mM L-glutamine (Sigma, St. Louis, Mo., USA), 25% horse serum (Welgene, Gyeongsan, South Korea), and 1% penicillin-streptomycin (Gibco BRL, USA), pH=7.1) were changed once every two days, and the culture period was 12 to 14 days, and then used in a subsequent experiment (FIG. 5). After the cultured brain hippocampal slices were carefully isolated from the cultured thin film insert using a pin, the brain hippocampal slices were placed on a 8×8 microelectrode array (MEA; Multi Channel Systems, Germany) with a diameter of 10 μm and an interval of 100 μm coated with 0.01% polyethyleneimine (Sigma, St. Louis, Mo., USA). […] Thereafter, the MEA containing the brain hippocampus was mounted on an amplification device MEA1060 (Multi Channel Systems Inc., Reutlingen, Germany), and the artificial spinal cord solution in the MEA was grounded with Ag/AgCl. During the subsequent experiment, the artificial spinal cord solution into which the 5% CO2 and 95% 02 mixed gas was added was perfused at a rate of 3 mL/min, and the MEA and the artificial spinal cord solution were maintained at 33° C. (FIG. 6) . […] The MEA with the hippocampal tissue read data at a sampling rate of 25 kHz for each channel through a total of 60 channels, and was recorded through a computer using MC_Rack and MC_Data Tool (Multi Channel Systems, GmbH) software. A 4-stage band pass filter was used to extract meaningful spikes from all recorded signals, and Equation is as follows. Wherein, X represents a root mean square (RMS) for noise, and k is a factor that determines each threshold. Here, the threshold consisted of a total of three factors (0.6, 1 and 3). […] This process was performed using a MATLAB (Mathworks Inc., Natick, Massachusetts, USA) program for all 60 channels (FIG. 7).

SMILES	neural activity after washing	degree of neural activity compared to treatment of caffeine alone	increase of neural activity after washing (1 mM caffeine alone, after washing) [%]
C[C@@H]1O[C@@H](OC[C@H]2O[C@@H](Oc3cc(O)c4c(c3)O[C@H](c3ccc(O)cc3)CC4=O)[C@H](O)[C@@H](O)[C@@H]2O)[C@H](O)[C@H](O)[C@H]1O [narirutin]	maintained without a significant increase; also recorded: neural activity inhibitory effect persisted	significantly reduced	
COc1ccc([C@@H]2CC(=O)c3c(O)cc(O[C@@H]4O[C@H](CO[C@@H]5O[C@@H](C)[C@H](O)[C@@H](O)[C@H]5O)[C@@H](O)[C@H](O)[C@H]4O)cc3O2)cc1O [hesperidin]	maintained without a significant increase; also recorded: neural activity inhibitory effect persisted	significantly reduced	
Cn1c(=O)c2c(ncn2C)n(C)c1=O [caffeine, 1,3,7-trimetnylxanthine]			≥ 200

— patent US20210252094A1, “COMPOSITION FOR IMPROVING SLEEP DISORDERS CAUSED BY CAFFEINE CONTAINING CITRUS RIND EXTRACT” (NOAHS CO., LTD., priority 2018, published 2021)
